In brackets after ≈: the same amount, converted by molar mass.
Columns and labels:
[1] = system: Daphnia magna; conditions: chronic/long-term; duration: 21 days; reproduction
[2] = system: Oryctolagus sp.
[3] = system: Colinus virginianus; conditions: for LD50: acute, mortality
[4] = system: Canidae; conditions: chronic, Dog Other
[5] = system: Oncorhynchus mykiss
[6] = system: Tagia sp.
[7] = system: Rattus norvegicus; conditions: for LD50: acute, mortality; for NOAEL: chronic
[8] = system: Anas platyrhynchos; conditions: for LD50: oral

N#Cc1c(Cl)cccc1Cl [2,6-Dichlorobenzonitrile]
NOEC [1]: 1.2 mg/L
NOAEL ([2]; developmental, development): 45 mg/kg-day
LD50 ([3]; oral, diet): 598 mg/kg-day
LD50 ([3]; oral): 698 mg/kg-day
NOEL ([3]; reproduction developmental): 14.1 mg/kg-day
NOAEL ([4]; duration: 52 weeks, oral, hematological): 1 mg/kg-day
LC50 ([5]; acute, duration: 96 hours, mortality): 7.2 µg/mL (≈ 41.9 µM)
NOEC ([5]; chronic/long-term, duration: 96 days, growth): 0.66 mg/L
LC50 ([6]; acute, duration: 14 days, mortality): 270 mg/kg
LD50 ([7]; oral): > 2000 mg/kg-day
LD50 ([8]; acute, unspecified, clinical signs): > 50 mg/kg-day
NOEL ([8]; not reported): 35.5 mg/kg-day
LD50 ([8]; short-term, feed, mortality): > 470 mg/kg-day

NC(=O)c1c(Cl)cccc1Cl [2,6-Dichlorobenzamide]
NOAEL ([2]; reproduction developmental, body weight): 30 mg/kg-day
NOEL ([3]; short-term, oral, diet): 876 mg/kg-day
NOAEL ([4]; duration: 2 years): 4.5 mg/kg-day
NOEC ([6]; chronic/long-term, duration: 56 days): 250 mg/kg
LD50 ([7]; oral): 500 mg/kg-day
NOAEL [7]: 5.7 mg/kg-day
NOAEL ([7]; oral): 13.5 mg/kg-day

From EPA's ToxValDB 9.5 (doi:10.2903/j.efsa.2010.1705)
